Literature values, collected in US20040247626A1, “Stable aqueous dispersion of 1, 2-benzisothiazoline-3-one (bit)” (priority 2004, published 2004).

SMILES: O=c1[nH]sc2ccccc12 [BIT, 1,2-benzisothiazolin-3-one]
- solubility in water: sparingly soluble
